Experimental data reported in ChEMBL document CHEMBL5653631, “A Potent and Selective ULK1 Inhibitor Suppresses Autophagy and Sensitizes Cancer Cells to Nutrient Stress” (iScience, 2018).

What was measured:
[1] = biological target: Serine/threonine-protein kinase PAK 1 (Homo sapiens) (UniProt Q13153); assay: Inhibition of human recombinant PAK1 at 40 nM related to control ULK1
[2] = biological target: Serine/threonine-protein kinase SBK1 (Homo sapiens) (UniProt Q52WX2); assay: Inhibition of human recombinant SBK1 at 40 nM in presence of ATP by radiometric assay relative to control
Serine/threonine-protein kinase SBK1 (Homo sapiens), sequence (Q52WX2 whole entry): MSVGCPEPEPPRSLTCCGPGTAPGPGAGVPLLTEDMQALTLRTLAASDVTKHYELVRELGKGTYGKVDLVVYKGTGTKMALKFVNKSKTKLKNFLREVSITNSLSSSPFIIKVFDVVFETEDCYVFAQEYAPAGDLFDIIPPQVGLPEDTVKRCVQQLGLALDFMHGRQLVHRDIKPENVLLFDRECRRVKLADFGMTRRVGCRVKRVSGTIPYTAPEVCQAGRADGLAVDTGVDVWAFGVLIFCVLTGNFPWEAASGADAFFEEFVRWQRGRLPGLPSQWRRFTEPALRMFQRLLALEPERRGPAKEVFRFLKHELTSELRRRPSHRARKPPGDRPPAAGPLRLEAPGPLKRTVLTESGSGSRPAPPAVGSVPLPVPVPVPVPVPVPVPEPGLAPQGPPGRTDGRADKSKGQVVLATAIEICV

[3] = biological target: SAFB-like transcription modulator (Homo sapiens) (UniProt Q9NWH9); assay: Inhibition of human recombinant MET at 40 nM related to control ULK1
SAFB-like transcription modulator (Homo sapiens), sequence (Q9NWH9 whole entry): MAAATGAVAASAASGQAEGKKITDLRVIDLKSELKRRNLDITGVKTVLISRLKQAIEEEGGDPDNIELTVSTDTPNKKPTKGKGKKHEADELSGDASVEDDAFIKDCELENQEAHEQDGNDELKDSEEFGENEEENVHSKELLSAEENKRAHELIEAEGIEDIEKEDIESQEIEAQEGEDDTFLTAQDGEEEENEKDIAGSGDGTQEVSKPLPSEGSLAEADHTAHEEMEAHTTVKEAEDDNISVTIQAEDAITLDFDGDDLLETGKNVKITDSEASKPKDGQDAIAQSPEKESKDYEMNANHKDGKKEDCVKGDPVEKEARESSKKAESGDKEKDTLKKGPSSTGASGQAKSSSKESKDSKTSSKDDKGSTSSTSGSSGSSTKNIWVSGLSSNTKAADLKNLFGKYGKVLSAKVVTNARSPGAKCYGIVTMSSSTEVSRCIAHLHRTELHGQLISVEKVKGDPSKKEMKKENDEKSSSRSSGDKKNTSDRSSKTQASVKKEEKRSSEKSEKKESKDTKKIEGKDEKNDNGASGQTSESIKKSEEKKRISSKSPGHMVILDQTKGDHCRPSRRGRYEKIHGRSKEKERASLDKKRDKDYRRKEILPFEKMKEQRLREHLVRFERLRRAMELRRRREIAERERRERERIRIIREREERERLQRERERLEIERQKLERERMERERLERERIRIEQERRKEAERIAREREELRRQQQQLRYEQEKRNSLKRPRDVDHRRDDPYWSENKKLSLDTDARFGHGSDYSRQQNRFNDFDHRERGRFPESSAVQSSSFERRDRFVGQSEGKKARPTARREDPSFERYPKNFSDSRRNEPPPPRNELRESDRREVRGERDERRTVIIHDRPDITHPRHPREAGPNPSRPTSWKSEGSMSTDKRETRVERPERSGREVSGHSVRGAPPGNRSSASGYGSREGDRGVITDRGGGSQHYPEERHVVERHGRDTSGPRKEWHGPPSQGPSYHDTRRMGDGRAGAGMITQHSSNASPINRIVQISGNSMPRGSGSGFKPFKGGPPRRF

[4] = biological target: Calcium/calmodulin-dependent protein kinase type II subunit alpha (Homo sapiens) (UniProt Q9UQM7); assay: Inhibition of human recombinant CaMK2a at 40 nM in presence of ATP by radiometric assay relative to control
Calcium/calmodulin-dependent protein kinase type II subunit alpha (Homo sapiens), sequence (Q9UQM7 whole entry): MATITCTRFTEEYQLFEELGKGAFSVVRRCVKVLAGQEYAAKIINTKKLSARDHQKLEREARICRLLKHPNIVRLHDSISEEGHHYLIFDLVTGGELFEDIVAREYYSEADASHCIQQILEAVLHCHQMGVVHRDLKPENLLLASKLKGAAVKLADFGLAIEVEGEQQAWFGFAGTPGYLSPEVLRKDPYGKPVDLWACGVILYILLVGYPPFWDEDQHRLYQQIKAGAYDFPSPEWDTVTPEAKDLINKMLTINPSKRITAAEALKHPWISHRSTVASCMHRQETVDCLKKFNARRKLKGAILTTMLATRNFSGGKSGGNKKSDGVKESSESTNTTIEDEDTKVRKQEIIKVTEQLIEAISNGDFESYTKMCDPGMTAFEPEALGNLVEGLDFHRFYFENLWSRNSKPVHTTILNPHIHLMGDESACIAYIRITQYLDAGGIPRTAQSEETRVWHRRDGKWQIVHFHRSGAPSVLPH

[5] = biological target: Ribosomal protein S6 kinase alpha-5 (Homo sapiens) (UniProt O75582); assay: Inhibition of human recombinant MSK1 at 40 nM related to control ULK1
Ribosomal protein S6 kinase alpha-5 (Homo sapiens), sequence (O75582 whole entry, looked up): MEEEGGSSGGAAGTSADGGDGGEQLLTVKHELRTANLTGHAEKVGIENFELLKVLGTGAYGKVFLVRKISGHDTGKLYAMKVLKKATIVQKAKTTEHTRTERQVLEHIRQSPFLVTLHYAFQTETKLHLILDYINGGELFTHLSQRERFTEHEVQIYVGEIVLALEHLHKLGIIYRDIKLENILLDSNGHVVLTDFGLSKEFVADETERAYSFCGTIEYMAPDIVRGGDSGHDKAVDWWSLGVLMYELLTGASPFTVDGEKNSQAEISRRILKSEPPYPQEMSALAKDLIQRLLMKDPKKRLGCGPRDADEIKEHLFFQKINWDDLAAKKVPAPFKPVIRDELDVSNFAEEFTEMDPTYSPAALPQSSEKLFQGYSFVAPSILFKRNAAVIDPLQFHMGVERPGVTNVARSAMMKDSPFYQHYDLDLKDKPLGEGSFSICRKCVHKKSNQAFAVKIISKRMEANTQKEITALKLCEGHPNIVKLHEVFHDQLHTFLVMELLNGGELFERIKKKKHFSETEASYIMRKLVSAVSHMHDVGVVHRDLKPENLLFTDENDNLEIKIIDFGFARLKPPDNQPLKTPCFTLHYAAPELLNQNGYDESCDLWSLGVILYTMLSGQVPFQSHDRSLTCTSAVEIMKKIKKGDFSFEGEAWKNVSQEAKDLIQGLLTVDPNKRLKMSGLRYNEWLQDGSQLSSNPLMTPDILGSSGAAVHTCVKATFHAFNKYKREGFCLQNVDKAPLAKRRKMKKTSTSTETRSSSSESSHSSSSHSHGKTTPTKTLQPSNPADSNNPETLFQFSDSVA

[6] = biological target: T1, cGMP-dependent protein kinase 2 (Homo sapiens) (UniProt Q13237); assay: Inhibition of human recombinant PKG2 at 500 nM related to control ULK1
T1 sequence (whole entry): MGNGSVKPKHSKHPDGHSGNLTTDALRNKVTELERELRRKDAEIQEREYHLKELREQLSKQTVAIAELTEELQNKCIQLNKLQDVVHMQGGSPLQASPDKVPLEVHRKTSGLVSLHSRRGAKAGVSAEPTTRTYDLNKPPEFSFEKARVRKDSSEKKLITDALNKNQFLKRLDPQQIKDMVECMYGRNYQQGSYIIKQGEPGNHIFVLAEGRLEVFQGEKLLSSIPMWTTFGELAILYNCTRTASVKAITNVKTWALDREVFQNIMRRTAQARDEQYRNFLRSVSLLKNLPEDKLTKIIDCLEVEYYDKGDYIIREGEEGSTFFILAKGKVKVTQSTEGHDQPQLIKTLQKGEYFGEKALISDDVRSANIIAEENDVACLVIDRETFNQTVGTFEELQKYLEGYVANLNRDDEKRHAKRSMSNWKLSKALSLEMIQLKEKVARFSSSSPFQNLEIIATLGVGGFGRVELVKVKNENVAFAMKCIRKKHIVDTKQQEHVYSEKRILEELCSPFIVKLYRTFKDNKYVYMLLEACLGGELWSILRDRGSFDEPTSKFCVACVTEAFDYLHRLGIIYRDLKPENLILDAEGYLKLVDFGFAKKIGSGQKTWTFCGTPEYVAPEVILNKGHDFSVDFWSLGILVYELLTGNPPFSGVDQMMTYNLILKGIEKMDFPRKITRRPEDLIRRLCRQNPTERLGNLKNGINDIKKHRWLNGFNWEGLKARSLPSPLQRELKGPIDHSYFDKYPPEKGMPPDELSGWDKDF

[7] = biological target: T2, Rhodopsin kinase GRK1 (Homo sapiens) (UniProt Q15835); assay: Inhibition of human recombinant RHOK at 500 nM related to control ULK1
T2 sequence (whole entry): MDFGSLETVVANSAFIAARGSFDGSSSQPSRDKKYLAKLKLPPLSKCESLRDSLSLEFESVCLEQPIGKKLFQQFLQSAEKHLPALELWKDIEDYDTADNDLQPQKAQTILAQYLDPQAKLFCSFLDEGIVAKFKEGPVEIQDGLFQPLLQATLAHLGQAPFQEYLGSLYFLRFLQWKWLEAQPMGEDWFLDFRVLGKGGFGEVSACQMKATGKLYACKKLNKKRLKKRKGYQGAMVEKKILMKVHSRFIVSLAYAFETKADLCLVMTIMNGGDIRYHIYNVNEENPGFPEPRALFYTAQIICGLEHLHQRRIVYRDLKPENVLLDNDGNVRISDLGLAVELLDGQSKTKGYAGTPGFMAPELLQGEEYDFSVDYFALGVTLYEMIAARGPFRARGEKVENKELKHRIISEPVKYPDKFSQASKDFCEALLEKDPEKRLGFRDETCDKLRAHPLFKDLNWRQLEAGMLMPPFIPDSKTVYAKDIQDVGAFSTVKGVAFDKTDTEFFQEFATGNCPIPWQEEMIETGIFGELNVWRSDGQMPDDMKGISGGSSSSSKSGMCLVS

[8] = biological target: T3, Eukaryotic elongation factor 2 kinase (Homo sapiens) (UniProt O00418); assay: Inhibition of human recombinant eEF2K at 500 nM related to control ULK1
T3 sequence (whole entry): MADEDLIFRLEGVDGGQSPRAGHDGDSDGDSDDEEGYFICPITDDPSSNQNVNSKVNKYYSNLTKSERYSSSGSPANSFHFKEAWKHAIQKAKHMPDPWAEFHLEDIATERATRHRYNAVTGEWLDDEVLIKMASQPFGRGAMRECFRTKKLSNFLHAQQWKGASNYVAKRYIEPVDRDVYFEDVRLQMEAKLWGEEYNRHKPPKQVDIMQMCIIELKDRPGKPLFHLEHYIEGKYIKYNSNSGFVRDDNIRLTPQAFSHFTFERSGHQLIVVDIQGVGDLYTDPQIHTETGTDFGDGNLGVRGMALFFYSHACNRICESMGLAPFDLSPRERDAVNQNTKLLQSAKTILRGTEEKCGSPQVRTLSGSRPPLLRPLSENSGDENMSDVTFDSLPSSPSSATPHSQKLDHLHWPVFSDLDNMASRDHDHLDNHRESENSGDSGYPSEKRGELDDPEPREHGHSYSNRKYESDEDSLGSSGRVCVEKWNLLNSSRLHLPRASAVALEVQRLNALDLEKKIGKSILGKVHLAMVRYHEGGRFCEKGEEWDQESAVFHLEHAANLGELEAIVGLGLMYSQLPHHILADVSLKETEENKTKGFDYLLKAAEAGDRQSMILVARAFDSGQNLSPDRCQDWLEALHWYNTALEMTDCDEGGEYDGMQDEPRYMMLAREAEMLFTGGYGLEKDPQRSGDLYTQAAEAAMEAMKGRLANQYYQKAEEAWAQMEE

[9] = biological target: Receptor-interacting serine/threonine-protein kinase 2 (Homo sapiens) (UniProt O43353); assay: Inhibition of human recombinant RIPK2 at 500 nM related to control ULK1
Receptor-interacting serine/threonine-protein kinase 2 (Homo sapiens), sequence (O43353 whole entry): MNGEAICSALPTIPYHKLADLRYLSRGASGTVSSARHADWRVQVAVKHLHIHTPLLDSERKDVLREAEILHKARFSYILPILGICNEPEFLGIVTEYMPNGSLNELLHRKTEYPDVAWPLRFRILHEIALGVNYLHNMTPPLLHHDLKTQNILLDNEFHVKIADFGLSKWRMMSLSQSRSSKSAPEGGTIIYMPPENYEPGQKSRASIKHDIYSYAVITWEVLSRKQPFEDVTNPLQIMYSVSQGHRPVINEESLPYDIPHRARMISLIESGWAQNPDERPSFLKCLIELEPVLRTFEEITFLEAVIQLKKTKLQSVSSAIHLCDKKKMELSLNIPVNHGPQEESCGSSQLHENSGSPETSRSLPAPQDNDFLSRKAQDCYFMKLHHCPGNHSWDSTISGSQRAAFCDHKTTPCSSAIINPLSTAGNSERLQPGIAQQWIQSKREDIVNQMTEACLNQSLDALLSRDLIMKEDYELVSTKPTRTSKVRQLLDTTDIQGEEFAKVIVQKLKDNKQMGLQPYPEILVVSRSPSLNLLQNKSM

[10] = biological target: Mitogen-activated protein kinase 14 (Homo sapiens) (UniProt Q16539); assay: Inhibition of human recombinant p38alpha at 500 nM in presence of ATP by radiometric assay relative to control
Mitogen-activated protein kinase 14 (Homo sapiens), sequence (Q16539 whole entry): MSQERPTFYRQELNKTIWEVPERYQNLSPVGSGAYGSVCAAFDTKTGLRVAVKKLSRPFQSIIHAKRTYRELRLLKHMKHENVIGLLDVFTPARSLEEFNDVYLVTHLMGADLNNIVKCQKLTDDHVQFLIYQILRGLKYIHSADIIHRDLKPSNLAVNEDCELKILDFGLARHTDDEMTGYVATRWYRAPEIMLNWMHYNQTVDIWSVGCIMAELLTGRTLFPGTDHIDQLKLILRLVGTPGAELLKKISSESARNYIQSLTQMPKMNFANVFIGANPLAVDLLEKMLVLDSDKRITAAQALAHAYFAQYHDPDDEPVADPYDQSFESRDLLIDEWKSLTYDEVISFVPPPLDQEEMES

Serine/threonine-protein kinase PAK 1 (Homo sapiens), sequence (Q13153 whole entry, looked up): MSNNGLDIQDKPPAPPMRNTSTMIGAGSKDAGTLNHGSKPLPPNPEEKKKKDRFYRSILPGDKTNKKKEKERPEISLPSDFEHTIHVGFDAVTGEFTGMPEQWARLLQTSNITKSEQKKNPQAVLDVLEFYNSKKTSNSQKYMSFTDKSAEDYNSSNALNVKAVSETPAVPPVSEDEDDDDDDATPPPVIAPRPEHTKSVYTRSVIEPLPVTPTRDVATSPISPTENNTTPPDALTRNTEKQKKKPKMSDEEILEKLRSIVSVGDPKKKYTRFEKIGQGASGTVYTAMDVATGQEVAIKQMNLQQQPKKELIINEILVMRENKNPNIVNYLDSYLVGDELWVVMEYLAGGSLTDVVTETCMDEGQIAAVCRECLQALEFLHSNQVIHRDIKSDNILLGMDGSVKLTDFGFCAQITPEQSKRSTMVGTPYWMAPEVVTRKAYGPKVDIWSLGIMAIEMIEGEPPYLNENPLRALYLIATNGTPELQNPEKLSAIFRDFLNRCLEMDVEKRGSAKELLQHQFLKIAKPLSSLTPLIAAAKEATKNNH

Row | SMILES | fold change (FC) [1] | inhibition [2] | fold change (FC) [3] | inhibition [4] | fold change (FC) [5] | fold change (FC) [6] | fold change (FC) [7] | fold change (FC) [8] | fold change (FC) [9] | inhibition [10]
1 | O=C(N[C@@H](C1CC1)C(F)(F)F)c1cc(-c2cnn3cc(-c4ccc(F)cc4)cnc23)cs1 | 0 | 0% | 0.22 | 0% | 0 |  |  |  |  | 
2 | CNC(=O)c1ccccc1Oc1nc(Nc2cc(OC)c(OC)c(OC)c2)ncc1Br |  |  |  |  |  | 0.03 | 0 | 0.19 | 0 | 5%
